Counter-ions that a name gives are not always drawn.
Test: Exposure of solid to air at about 38% RH and 22° C.
Type: physicochemical
Conditions: exposed to air at about 38% RH and 22° C.
Experimental: 6 g of Compound 1 Form I, about 99 wt % purity, was dissolved in a mixture of about 96 g of DCM and about 20 g MeOH at about 32° C. The solution was polish filtered and then the vessel was rinsed forward with a mixture of about 20 g of DCM and about 3.6 g of MeOH. The filtrate was charged with a solution containing about 2.28 g of L-tartaric acid dissolved in about 6 mL of water at about 22° C. A slurry of solids formed after stirring for about 1 day. The slurry was distilled under vacuum to about 3 V (about 20 mL) at about 40° C., and then cooled to about 22° C. It was charged with about 87 g of acetone, held at about 22° C. for about 1 h, and then cooled to about 0° C. After holding for about 4 h, the slurry was filtered, rinsed with about 24 g of pre-cooled acetone twice. The wet cake was dried at 50° C. with full house vacuum under nitrogen sweep for about 4 days to afford about 7.36 g of L-tartrate Form IV (with a small amount of L-tartrate Form I). […] When exposed to air at about 38% RH and 22° C., a small sample of Compound 1 L-tartrate Form IV completely converted to Compound 1 L-tartrate Form III in less than 20 min.

C[C@@H]1[C@@H](Oc2ccc(C(=O)NC3CC3)nc2)CN1Cc1cnc2cc(Cl)c(=O)[nH]c2c1 [L-Tartrate Salt Form IV, 5-(((2R,3S)-1-((7-chloro-6-oxo-5,6-dihydro-1,5-naphthyridin-3-yl)methyl)-2-methylazetidin-3-yl)oxy)-N-cyclopropylpicolinamide]
time to complete conversion to L-tartrate Form III: less than 20 min

Source: patent publication US20240317746A1, “CRYSTALLINE FORMS OF AN AZETIDINE PARP1 INHIBITOR” (XinThera, Inc., priority 2023, published 2024)
